Results taken from PubChem BioAssay (NCI).
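Test compounds were applied to cells in 96-well plates for 48 hours at 5 doses. GI50: concentration for 50% inhibition of growth. TGI denotes the concentration required for complete inhibition of growth.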

How the values were obtained:
Test in all cases: growth of human tumour cells (NCI), 48 h
RXF 393 renal = test system: RXF 393 renal
NCI/ADR-RES ovarian = test system: NCI/ADR-RES ovarian
786-0 renal = test system: 786-0 renal
NCI-H522 lung = test system: NCI-H522 lung
MCF7 breast = test system: MCF7 breast
SN12C renal = test system: SN12C renal
BT-549 breast = test system: BT-549 breast
RPMI-8226 leukemia = test system: RPMI-8226 leukemia
UACC-62 melanoma = test system: UACC-62 melanoma
SW-620 colon = test system: SW-620 colon
SR leukemia = test system: SR leukemia
DLD-1 colon = test system: DLD-1 colon

Row | Compound | TGI (RXF 393 renal) | TGI (NCI/ADR-RES ovarian) | TGI (786-0 renal) | TGI (NCI-H522 lung) | TGI (MCF7 breast) | TGI (SN12C renal) | TGI (BT-549 breast) | TGI (RPMI-8226 leukemia) | TGI (UACC-62 melanoma) | TGI (SW-620 colon) | TGI (SR leukemia) | TGI (DLD-1 colon) | GI50 (MCF7 breast) | GI50 (RXF 393 renal) | GI50 (NCI/ADR-RES ovarian) | GI50 (SN12C renal) | GI50 (BT-549 breast) | GI50 (UACC-62 melanoma) | GI50 (SW-620 colon) | GI50 (SR leukemia)
1 | OC(CC1CCCCN1)c1ccc2c(c1)oc1ccccc12 (centres undefined) | > 100 µM | > 100 µM | > 100 µM | > 100 µM | > 100 µM | > 100 µM | > 100 µM | > 100 µM | 44.7 µM | > 100 µM | > 100 µM | – | – | – | – | – | – | – | – | –
2 | CN(C)CCNC(=O)c1cccc2c(=O)c3ccccc3oc12 | > 100 µM | > 79.9 µM | – | – | 74 µM | > 78.7 µM | – | > 87.1 µM | > 76.2 µM | > 100 µM | – | > 100 µM | – | – | – | – | – | – | – | –
3 | Cc1n(CC(C)C)c2c([n+]1C)C(=O)c1ccccc1C2=O | 6.19 µM | > 100 µM | 3.41 µM | 0.0386 µM | – | 0.0671 µM | 0.61 µM | 8.37 µM | 0.576 µM | 1.4 µM | 11.5 µM | 0.975 µM | – | – | – | – | – | – | – | –
4 | CCOP(=Nc1ccc(N(C)C)cc1)(OCC)OCC | > 100 µM | > 100 µM | – | > 100 µM | > 100 µM | – | > 100 µM | > 100 µM | > 100 µM | – | – | – | – | – | – | – | – | – | – | –
5 | CCC1C[N+]23CCc4c([nH]c5ccccc45)C2CC1CC3 (centres undefined) | > 100 µM | – | – | > 100 µM | – | > 100 µM | – | > 100 µM | > 100 µM | > 100 µM | > 100 µM | > 100 µM | – | – | – | – | – | – | – | –
6 | CN(C)/C=C/C(=CC=[N+](C)C)/C=C/N(C)C | > 100 µM | – | > 100 µM | > 100 µM | – | > 100 µM | – | > 100 µM | > 100 µM | > 100 µM | > 100 µM | > 100 µM | – | – | – | – | – | – | – | –
7 | CC(=O)C(C(c1ccccc1)N1CCOCC1)N1CCOCC1 (centres undefined) | > 100 µM | > 100 µM | > 100 µM | > 100 µM | > 100 µM | > 100 µM | > 100 µM | > 100 µM | > 100 µM | > 100 µM | > 100 µM | – | – | – | – | – | – | – | – | –
8 | Cc1ccc(S(=O)(=O)Nc2cccc3c(=O)[nH]cnc23)cc1 | > 100 µM | – | > 100 µM | > 100 µM | – | > 100 µM | – | 97.7 µM | > 100 µM | > 100 µM | > 100 µM | – | – | – | – | – | – | – | – | –
9 | CC1=C2C(O)C(C(C)C(=O)N(C)C)CCC2(C)C=CC1=O (centres undefined) | > 100 µM | > 100 µM | – | > 100 µM | > 100 µM | > 100 µM | – | > 100 µM | > 100 µM | > 100 µM | – | > 100 µM | – | – | – | – | – | – | – | –
10 | O=C1C=C(C2OC(CO)C(O)C2O)C(=O)N1 (centres undefined) | > 100 µM | > 100 µM | – | 38.5 µM | > 100 µM | > 100 µM | – | > 87.8 µM | > 100 µM | > 100 µM | – | > 100 µM | – | – | – | – | – | – | – | –
11 | COc1cc2c(cc1O)c(O)cc1c3cc(OC)c(OC)cc3c[n+](C)c21 | > 100 µM | > 100 µM | > 100 µM | 25.2 µM | > 100 µM | – | > 100 µM | > 100 µM | > 100 µM | > 100 µM | – | – | – | – | – | – | – | – | – | –
12 | COC1OC(CS(=O)(=O)O)C(O)C(O)C1O (centres undefined) | > 100 µM | > 100 µM | – | – | > 100 µM | > 100 µM | > 100 µM | > 100 µM | > 100 µM | > 100 µM | > 100 µM | – | – | – | – | – | – | – | – | –
13 | O=C(c1ccccc1)c1ccc2n[se]nc2c1 | > 100 µM | – | – | > 100 µM | – | > 100 µM | – | > 100 µM | > 100 µM | > 100 µM | – | > 100 µM | – | – | – | – | – | – | – | –
14 | Cc1ccc2c(ccc(/C=C/c3ccc(O)c4ncccc34)[n+]2C)c1 | 37.8 µM | > 100 µM | 26.7 µM | 27.1 µM | – | 35.6 µM | > 29 µM | 70.2 µM | 46.5 µM | 28.4 µM | > 35.7 µM | 38.3 µM | – | – | – | – | – | – | – | –
15 | CCOC(=O)Nc1cc2c(c(N)n1)N=C(c1ccc(OC)cc1)CN2 | – | – | 1.9 µM | 0.00636 µM | > 100 µM | 54.5 µM | 80.5 µM | – | – | – | – | – | 0.0264 µM | – | – | – | – | – | – | –
16 | CCCC(C)c1ccc(OCCCCCCN2CCNCC2)cc1 (centres undefined) | 3 µM | 5.37 µM | – | – | – | 9.66 µM | 12.4 µM | – | 3.71 µM | 3.57 µM | 4.21 µM | – | – | 1.55 µM | 2.22 µM | 2.84 µM | 3.08 µM | 1.95 µM | 1.72 µM | 1.7 µM
17 | N#C[S-].[La+3].c1cnc2c(c1)ccc1cccnc12.c1cnc2c(c1)ccc1cccnc12.c1cnc2c(c1)ccc1cccnc12 | – | – | 11.7 µM | 16 µM | – | 16 µM | – | > 100 µM | 4.8 µM | 27.1 µM | 8.8 µM | – | – | – | – | – | – | – | – | –
